Source: US9414597B2, “Pesticidal mixtures including spiroheterocyclic pyrrolidine diones” (Syngenta Participations AG, priority 2011, dated 2016)
“And” between values parts separate entries of the source, which are not always exact repeats. Equal entries are not always repeated.

What was measured:
[1] = system: Myzus persicae (Green Peach Aphid); assay: Myzus persicae feeding/residual contact activity, preventive (sunflower leaf discs); format: in vivo
Source text: (§1) The action to be expected E for a given active ingredient combination obeys the so-called COLBY formula and can be calculated as follows (COLBY, S. R. “Calculating synergistic and antagonistic responses of herbicide combination”. Weeds, Vol. 15, pages 20-22; 1967): • ppm=milligrams of active ingredient(=a.i.) per liter of spray mixture • X=% action by active ingredient A) using p ppm of active ingredient • Y=% action by active ingredient B) using q ppm of active ingredient.
(§2) According to COLBY, the expected (additive) action of active ingredients A)+B) using p+q ppm of active ingredient is
(§3) If the action actually observed (O) is greater than the expected action (E), then the action of the combination is super-additive, i.e. there is a synergistic effect. In mathematical terms the synergism factor SF corresponds to O/E. In the agricultural practice an SF of ≧1.2 indicates significant improvement over the purely complementary addition of activities (expected activity), while an SF of ≦0.9 in the practical application routine signals a loss of activity compared to the expected activity.
Myzus persicae (Green Peach Aphid):
feeding/residual contact activity, preventive
Sunflower leaf discs are placed on agar in a 24-well microtiter plate and sprayed with the DMSO test solutions. After drying, the leaf discs are infested with an aphid population of mixed ages. […] (1 PPM=1 mg l^−1)

[2] = system: Tetranychus urticae (Two-Spotted Spider Mite); assay: Tetranychus urticae feeding/contact activity, preventive (bean leaf discs); format: in vivo
Source text: as §1, §2, §3
Tetranychus urticae (Two-Spotted Spider Mite):
feeding/contact activity, preventive
Bean leaf discs on agar in 24-well microtiter plates are sprayed with the DMSO test solutions. After drying, the leaf discs are infested with mite populations of mixed ages. […] (1 PPM=1 mg l^−1)

[3] = single active, 3.125 PPM AI, after 5 days
[4] = single active, 6.25 PPM AI, after 5 days
[5] = single active, 12.5 PPM AI, after 5 days
[6] = single active, 100 PPM AI, after 5 days
[7] = single active, 200 PPM AI, after 5 days
[8] = single active, 400 PPM AI, after 5 days
[9] = single active, 800 PPM AI, after 5 days
[10] = single active, 50 PPM AI, after 5 days

CC1(C)[C@H](C(=O)O[C@H](C#N)c2cccc(Oc3ccccc3)c2)[C@@H]1/C=C(\Cl)C(F)(F)F (racemic) [Lambda cyhalothrin, lambda-cyhalothrin]
AVERAGE DEAD IN % AFTER 5 DAYS ([1]; Lambda Cyhalothrin alone, PPM AI r7-r10:50 r11-r14:25): 57%
AVERAGE DEAD IN % AFTER 5 DAYS [2, 3]: 15%

CNC(=O)c1cc(Cl)cc(C)c1NC(=O)c1cc(Br)nn1-c1ncccc1Cl [Chlorantraniliprol]
AVERAGE DEAD IN % AFTER 5 DAYS ([2]; Chlorantraniliprol alone, PPM AI r6:200 r7:400 r8:800): 25% and 37%

CNC(=O)c1cc(Cl)cc(C)c1NC(=O)c1cc(Br)nn1-c1ncccc1Cl [Chlorantraniliprole, chlorantraniliprole]
AVERAGE DEAD IN % AFTER 5 DAYS ([1]; Chlorantraniliprole alone, 50 PPM AI): 0%
AVERAGE DEAD IN % AFTER 5 DAYS ([1]; Table 45, Chlorantraniliprole alone, 50 PPM AI): 0%
AVERAGE DEAD IN % AFTER 5 DAYS ([2]; Chlorantraniliprole alone, 200 PPM AI): 25%
AVERAGE DEAD IN % AFTER 5 DAYS ([2]; Chlorantraniliprole alone, PPM AI r6:25 r7:50 r8:100): 0%

CCOC(=O)OC1=C(c2c(C)cc(Cl)cc2C)C(=O)N(C)C12CCN(OC)CC2 [Compound T1.055]
AVERAGE DEAD IN % AFTER 5 DAYS ([1]; T1.055 alone, 50 PPM AI): 10%
AVERAGE DEAD IN % AFTER 5 DAYS ([1]; T1.055 alone, PPM AI r6:100 r7:50 r8:25 r9:12.5): 0%
AVERAGE DEAD IN % AFTER 5 DAYS ([1]; T1.055 alone, PPM AI r6:100 r7:50 r8:25 r9:12.5 r10:6.25): 0%
AVERAGE DEAD IN % AFTER 5 DAYS ([1]; Table 45, T1.055 alone, 50 PPM AI): 0%
AVERAGE DEAD IN % AFTER 5 DAYS ([1]; Table 45, T1.055 alone, 100 PPM AI): 25%
AVERAGE DEAD IN % AFTER 5 DAYS ([1]; Table 45, T1.055 alone, 200 PPM AI): 65%
AVERAGE DEAD IN % AFTER 5 DAYS ([1]; Table 46, T1.055 alone, 50 PPM AI): 25%
AVERAGE DEAD IN % AFTER 5 DAYS ([1]; Table 48, T1.055 alone, 12.5 PPM AI): 0%
AVERAGE DEAD IN % AFTER 5 DAYS ([1]; Table 48, T1.055 alone, 25 PPM AI): 0%
AVERAGE DEAD IN % AFTER 5 DAYS ([1]; Table 48, T1.055 alone, 50 PPM AI): 65%
AVERAGE DEAD IN % AFTER 5 DAYS ([1]; Table 48, T1.055 alone, 100 PPM AI): 65%
AVERAGE DEAD IN % AFTER 5 DAYS ([1]; Table 48, T1.055 alone, 200 PPM AI): 80%
AVERAGE DEAD IN % AFTER 5 DAYS ([2]; T1.055 alone, 100 PPM AI): 0%
AVERAGE DEAD IN % AFTER 5 DAYS ([2]; T1.055 alone, 200 PPM AI): 0%
AVERAGE DEAD IN % AFTER 5 DAYS ([2]; T1.055 alone, PPM AI r6:200 r7:100 r8:50): 0%

CCOC(=O)OC1=C(c2c(C)cc(C)cc2C)C(=O)N(C)C12CCN(OC)CC2 [Compound T1.058]
AVERAGE DEAD IN % AFTER 5 DAYS ([2]; T1.058 alone, 50 PPM AI): 0%
AVERAGE DEAD IN % AFTER 5 DAYS ([2]; T1.058 alone, 100 PPM AI): 55%
AVERAGE DEAD IN % AFTER 5 DAYS ([2]; T1.058 alone, PPM AI r7:50 r8:25 r9:12.5 r10:6.25 r11:3.125 r12-r15:50): 0%

CCOC(=O)OC1=C(c2c(C)cc(Cl)cc2C)C(=O)NC12CCN(OC)CC2 [Compound T1iii.055]
AVERAGE DEAD IN % AFTER 5 DAYS ([1]; T1iii.055 alone, 12.5 PPM AI): 0%
AVERAGE DEAD IN % AFTER 5 DAYS ([1]; T1iii.055 alone, 25 PPM AI): 0%
AVERAGE DEAD IN % AFTER 5 DAYS ([1]; T1iii.055 alone, PPM AI r6:200 r7:100 r8:50 r9:25, 25 ppm active ingredient): 50%
AVERAGE DEAD IN % AFTER 5 DAYS ([1]; T1iii.055 alone, PPM AI r6:200 r7:100 r8:50 r9:25, 200 ppm active ingredient): 80%
AVERAGE DEAD IN % AFTER 5 DAYS ([1]; T1iii.055 alone, PPM AI r7:200 r8:100 r9:50): 0%
AVERAGE DEAD IN % AFTER 5 DAYS ([2]; T1iii.055 alone, 12.5 PPM AI): 0%
AVERAGE DEAD IN % AFTER 5 DAYS ([2]; single active, 1.56 PPM AI, after 5 days): 0%
AVERAGE DEAD IN % AFTER 5 DAYS [2, 3]: 0%
AVERAGE DEAD IN % AFTER 5 DAYS [2, 4]: 0%
AVERAGE DEAD IN % AFTER 5 DAYS [2, 5]: 0%

CNC(=O)c1cc(C#N)cc(C)c1NC(=O)c1cc(Br)nn1-c1ncccc1Cl [Cyantraniliprole, cyantraniliprole]
AVERAGE DEAD IN % AFTER 5 DAYS ([1]; Cyantraniliprole alone, 1.5 PPM AI): 0%

Cc1nn(C)c(/C(OC(=O)C(C)(C)C)=C(\C#N)c2ccc(C(C)(C)C)cc2)c1C [Cyenopyrafen, cyenopyrafen]
AVERAGE DEAD IN % AFTER 5 DAYS ([1]; Cyenopyrafen alone, 200 PPM AI): 0%
AVERAGE DEAD IN % AFTER 5 DAYS ([2]; Cyenopyrafen alone, 1.5 PPM AI): 0%
AVERAGE DEAD IN % AFTER 5 DAYS ([2]; single active, 1.5 PPM AI, after 5 days): 0%
AVERAGE DEAD IN % AFTER 5 DAYS ([2]; single active, 3 PPM AI, after 5 days): 40%
AVERAGE DEAD IN % AFTER 5 DAYS ([2]; single active, 6 PPM AI, after 5 days): 85%
AVERAGE DEAD IN % AFTER 5 DAYS ([2]; single active, 12 PPM AI, after 5 days): 92%

CC1=NNC(=O)N(/N=C/c2cccnc2)C1 [Pymetrozine, pymetrozine]
AVERAGE DEAD IN % AFTER 5 DAYS ([1]; Pymetrozine alone, 0.4 PPM AI): 0%
AVERAGE DEAD IN % AFTER 5 DAYS ([1]; Pymetrozine alone, 0.8 PPM AI): 25%
AVERAGE DEAD IN % AFTER 5 DAYS ([1]; Table 48, Pymetrozine alone, 0.8 PPM AI): 25%
AVERAGE DEAD IN % AFTER 5 DAYS ([2]; Pymetrozine alone, 100 PPM AI): 0%
AVERAGE DEAD IN % AFTER 5 DAYS ([2]; Pymetrozine alone, 200 PPM AI): 0%
AVERAGE DEAD IN % AFTER 5 DAYS [2, 6]: 0%
AVERAGE DEAD IN % AFTER 5 DAYS [2, 7]: 0%
AVERAGE DEAD IN % AFTER 5 DAYS [2, 8]: 0%
AVERAGE DEAD IN % AFTER 5 DAYS [2, 9]: 50%

CC(c1ccc(C(F)(F)F)nc1)S(C)(=O)=NC#N (stereo not drawn) [Sulfoxaflor, sulfoxaflor]
AVERAGE DEAD IN % AFTER 5 DAYS ([1]; Sulfoxaflor alone, 0.2 PPM AI): 20%
AVERAGE DEAD IN % AFTER 5 DAYS ([2]; Sulfoxaflor alone, PPM AI r6:50 r7:100 r8:200 r9:400): 0%
AVERAGE DEAD IN % AFTER 5 DAYS [2, 6]: 0%
AVERAGE DEAD IN % AFTER 5 DAYS [2, 7]: 0%
AVERAGE DEAD IN % AFTER 5 DAYS [2, 8]: 0%
AVERAGE DEAD IN % AFTER 5 DAYS [2, 9]: 35%

CN1COCN(Cc2cnc(Cl)s2)/C1=N\[N+](=O)[O-] [Thiamethoxam, thiamethoxam]
AVERAGE DEAD IN % AFTER 5 DAYS ([1]; Thiamethoxam alone, 0.8 PPM AI): 0%
AVERAGE DEAD IN % AFTER 5 DAYS ([2]; Thiamethoxam alone, PPM AI r6:50 r7:100 r8:200 r9:400 r10:100 r11:200 r12:400): 0%
AVERAGE DEAD IN % AFTER 5 DAYS [2, 10]: 0%
AVERAGE DEAD IN % AFTER 5 DAYS [2, 6]: 0%
AVERAGE DEAD IN % AFTER 5 DAYS [2, 7]: 0%
AVERAGE DEAD IN % AFTER 5 DAYS [2, 8]: 0%
AVERAGE DEAD IN % AFTER 5 DAYS [2, 9]: 37%

abamectin
AVERAGE DEAD IN % AFTER 5 DAYS ([2]; Abamectin alone, PPM AI r6:0.00625 r7:0.0125 r8:0.025 r9:0.05 r10:0.1): 0%

emamectin benzoate
AVERAGE DEAD IN % AFTER 5 DAYS ([1]; Emamectin Benzoate alone, PPM AI r7:12.5 r8:25 r9:50 r10:100 r11:200): 0%
AVERAGE DEAD IN % AFTER 5 DAYS ([1]; Table 46, Emamectin Benzoate alone, 12.5 PPM AI): 0%
AVERAGE DEAD IN % AFTER 5 DAYS ([1]; Table 46, Emamectin Benzoate alone, 25 PPM AI): 0%
AVERAGE DEAD IN % AFTER 5 DAYS ([1]; Table 46, Emamectin Benzoate alone, 50 PPM AI): 0%
AVERAGE DEAD IN % AFTER 5 DAYS ([1]; Table 46, Emamectin Benzoate alone, 100 PPM AI): 0%
AVERAGE DEAD IN % AFTER 5 DAYS ([1]; Table 46, Emamectin Benzoate alone, 200 PPM AI): 0%
AVERAGE DEAD IN % AFTER 5 DAYS ([2]; Emamectin Benzoate alone, 0.05 PPM AI): 0%
AVERAGE DEAD IN % AFTER 5 DAYS ([2]; Emamectin Benzoate alone, PPM AI r7:0.1 r8:0.05 r9:0.025 r10:0.0125 r11:0.00625): 0%

spinetoram
AVERAGE DEAD IN % AFTER 5 DAYS ([1]; Spinetoram alone, 100 PPM AI): 0%
AVERAGE DEAD IN % AFTER 5 DAYS [2, 4]: 0%
AVERAGE DEAD IN % AFTER 5 DAYS [2, 5]: 25%
AVERAGE DEAD IN % AFTER 5 DAYS ([2]; single active, 25 PPM AI, after 5 days): 80%
AVERAGE DEAD IN % AFTER 5 DAYS [2, 10]: 95%
